The source of these data is paper PMC4240039, “Interactions of ABCG2 (BCRP) with epidermal growth factor receptor kinase inhibitors developed for molecular imaging” (Frontiers in Pharmacology, 2014).

The structures appear in SMILES notation.

One data set has as its target T1, BCRP (Homo sapiens, UniProt Q9UNQ0).
T1 construct: expressed in transfected cells; host or cells: MDCK (MDCKII) cells, pcDNA3 vector; gift from Prof; Qingcheng Mao
T1 sequence (Q9UNQ0 1-655): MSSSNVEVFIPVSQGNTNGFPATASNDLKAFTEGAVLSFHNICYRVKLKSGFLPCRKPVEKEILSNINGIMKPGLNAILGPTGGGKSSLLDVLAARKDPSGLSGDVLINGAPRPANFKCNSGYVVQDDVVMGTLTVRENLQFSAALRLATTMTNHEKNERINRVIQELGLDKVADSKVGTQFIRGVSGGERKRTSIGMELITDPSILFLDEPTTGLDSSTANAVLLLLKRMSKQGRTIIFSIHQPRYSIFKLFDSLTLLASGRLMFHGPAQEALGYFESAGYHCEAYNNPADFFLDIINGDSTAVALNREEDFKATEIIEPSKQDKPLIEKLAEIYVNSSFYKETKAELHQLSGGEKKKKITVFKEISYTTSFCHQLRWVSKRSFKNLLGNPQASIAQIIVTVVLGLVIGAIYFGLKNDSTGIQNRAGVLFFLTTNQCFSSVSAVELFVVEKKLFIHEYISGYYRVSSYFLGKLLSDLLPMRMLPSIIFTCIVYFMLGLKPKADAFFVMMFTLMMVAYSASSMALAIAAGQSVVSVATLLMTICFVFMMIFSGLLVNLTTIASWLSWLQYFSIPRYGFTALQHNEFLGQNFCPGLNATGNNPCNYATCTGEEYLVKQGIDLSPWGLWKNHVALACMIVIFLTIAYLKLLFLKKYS
In words: BODIPY-prazosin accumulation assay in MDCK-BCRP cells. It is filed as cell-based. The note with it: 500 nM BODIPY-prazosin, 1 h incubation; test compounds 400 nM. Here is the method:
Accumulation assays with fluorescent substrates of eﬄux transporter are commonly utilized to determine the inhibitory effect of a test compound ([Brouwer et al., 2013]). In this study, MDCK-CT and MDCK-BCRP cells were seeded at density of 20 × 10^4 cells/well in 24 well plates. Experiments were performed two days after achieving 100% confluent monolayers. Prior to the experiment, the medium was removed and cells were incubated for 1 h with one of the test compounds dissolved in DMEM with 5 mM 4-(2-Hydroxyethyl)-1-piperazineethanesulfonic acid (HEPES), pH 7.4. In the accumulation phase cells were co-incubated with 500 nM BODIPY-prazosin (a BCRP/P-gp substrate; [Dey et al., 1997]; [Ni et al., 2010]) and one of the test compounds dissolved in DMEM with 5 mM HEPES. After 1 h, the cells were washed three times with ice-cold PBS. Intracellular fluorescence intensity of BODIPY-prazosin was measured within 1 h by a plate reader (Synergy HT, BioTek, Winooski, VT, USA) with excitation wavelength 485 nm and emission wavelength 528 nm.
FIGURE 4 Effect of EGFRIs on BODIPY-prazosin accumulation. Cell protein concentration-normalized BODIPY prazosin fluorescence in MDCK-BCRP cells were evaluated in the presence and the absence of 400 nM of the tested compounds following 1 h incubation.

The target in another data set is T2, human BCRP ATPase (Homo sapiens, UniProt Q9UNQ0).
T2 construct: purchased SOLVO Biotechnology, Szeged, Hungary; host or cells: Sf9 membrane preparations
T2 sequence (Q9UNQ0 1-655): T1 sequence (Q9UNQ0 1-655)
In words: BCRP ATPase activation assay ([…] kit, Sf9 membrane preparations). Type of data set: biochemical. The note with it: for Activation of BCRP ATPase: 400 nM (submicromolar), Sf9 membranes containing BCRP, vanadate-sensitive ATPase activity; for BCRP ATPase activation relative to that produced by gefitinib: 400 nM, Sf9 membranes. Here is the method:
ATPase activity was evaluated using […] kits (SOLVO Biotechnology, Szeged, Hungary), according to the manufacturer’s instructions.
FIGURE 2 Interactions of EGFRIs with BCRP ATPase. (A) Activation of BCRP-ATPase in Sf9 membrane preparations containing BCRP. Membranes were incubated with ATP and the tested compounds at 400 nM in the presence and absence of sodium orthovanadate. (B) Inhibition of sulfasalazine-stimulated BCRP-ATPase. The effect of EGFRIs was evaluated in sulfasalazine (10 μM)-stimulated membranes. Data are presented as means ± SD of the vanadate-sensitive ATPase activity from two experiments in duplicates.

Data set [1] can be described thus: MTT cell proliferation assay, BCRP-overexpressing cells. Type of data set: cell-based, canine. The settings on record: dog, MDCK-BCRP cells (MDCK cells transfected with wild-type BCRP), read-out: IC50 for inhibition of cell proliferation in MDCK-BCRP cells. As to the method: (§1) Madin-Darbey canine kidney (MDCK) cells transfected with pcDNA empty vector (MDCK-pcDNA3; MDCK-CT) and cDNA coding for wild-type BCRP (MDCK-BCRP) cells were a generous gift from Prof. Qingcheng Mao (University of Washington, Seattle, WA, USA). The human lung carcinoma cell lines A549 and HCC827 cells were provided by Prof. Eyal Mishani.
Madin-Darbey canine kidney vector (MDCK-pcDNA3) and MDCK-BCRP cells were grown in Eagle’s minimum essential medium (MEM) supplemented with 10% fetal bovine serum, 2 mM L-glutamine, 100 units/mL penicillin, and 100 μg/mL streptomycin, at 37∘C and 5% CO2-humidified incubator. The BCRP positive cells were selected by supplementation of 0.05 mg/mL gentamicin to the growth medium. The adherent cells, continuously cultivated in 10 cm^2 cell culture plates, were grown to nearly 80–90% confluence before they were harvested by trypsin-EDTA 0.25% solution. A549 were grown in Ham’s F12 growth medium and HCC827 were grown in RPMI-1640 growth medium. The cells were treated as described above.
(§2) The assay was performed as described earlier ([Rajendra et al., 2003]) with minor modifications. Briefly, Cells were seeded at density of 80 × 10^3 cells per well in 24 well plates. On the following day, the cells were incubated (in hexaplicates) with 0.2–102.4 μM of the tested EGFRIs or with the vehicle in the growth medium for 72 h. Then, the medium was removed and 300 μl of 0.5 mg/mL MTT solution in Hank’s Balanced Salt Solution (HBSS) was added to each well. After 2 h incubation at 37∘C, the MTT solution was removed and the cells were washed three times with HBSS, then the culture plates were incubated with 500 μl dimethyl sulphoxide (DMSO) for 15 min at room temperature. The absorption was detected at 540 nm using the Synergy plate reader. The proliferation of cells from MTT studies was expressed as a percent of control, DMSO-treated cells of the same type. An inhibitory sigmoidal model was fitted to the experimental data using Phoenix WinNonlin 6.3 (Pharsight, Mountain View, CA, USA).

A further data set concerns P-gp. Also on record: method as in Abourbeh et al., 2007. The note with it: ref Abourbeh et al., 2007; cited from earlier work.
On the set-up of data set [2]: method as in Dissoki et al., 2007. The note with it: ref Dissoki et al., 2007; cited from earlier work.
For a further data set, the system named is MDCK-CT cells. The data set can be described thus: MTT cell proliferation assay, vector control cells. The note with it: Canis lupus familiaris, 72 h, read-out: IC50 for inhibition of control cell proliferation. Type of data set: cell-based, canine. Here is the method: as §1
Madin-Darbey canine kidney vector (MDCK-pcDNA3) and MDCK-BCRP cells were grown in Eagle’s minimum essential medium (MEM) supplemented with 10% fetal bovine serum, 2 mM L-glutamine, 100 units/mL penicillin, and 100 μg/mL streptomycin, at 37∘C and 5% CO2-humidified incubator. The BCRP positive cells were selected by supplementation of 0.05 mg/mL gentamicin to the growth medium. […] The cells were treated as described above.
as §2, with “Briefly,” for “The assay was performed as described earlier ([Rajendra et al., 2003]) with minor modifications. Briefly,”, “On the following day, the cells were incubated (in hexaplicates) with 0.2–102.4 μM of the tested EGFRIs or with the vehicle in the growth medium for 72 h.” left out

The subject of the next data set is EGFR. Also on record: method as in earlier work. The settings on record: A431 cell lysates; ref Shaul et al., 2004; Mishani et al., 2005; Dissoki et al., 2007; read-out: EGFR binding potency IC50; cited from earlier work.

Regarding `COc1ccc2c3c([nH]c2c1)[C@H](C=C(C)C)N1C(=O)[C@@H]2CCCN2C(=O)[C@@H]1C3` [FTC, fumitremorgin C], the “BODIPY-prazosin accumulation in MDCK-BCRP cells” value on BCRP is “significantly (p < 0.01) enhanced”.
Consider `CN(C)C/C=C/C(=O)Nc1ccc2ncnc(Nc3cc(Cl)c(Cl)cc3F)c2c1` [ML04], for which the “Activation of BCRP ATPase” value on human BCRP ATPase was “activated BCRP ATPase”. The IC50 at 72 h in data set [1] is above 50000 nM. The P-gp substrate status entry in the data set on P-gp is “found to be a P-gp substrate”. Moreover, the “Log P” value in data set [2] is recorded as 3.9. In the data set on MDCK-CT cells, the IC50 was 2100 ± 600 nM.
Turning to `O=C(CCl)Nc1ccc2ncnc(Nc3cc(Cl)c(Cl)cc3F)c2c1` [ML05], at human BCRP ATPase, the “Activation of BCRP ATPase” value is given as “activated BCRP ATPase” and the “BCRP ATPase activation relative to that produced by gefitinib” value is at most 40%. Also, in the data set with EGFR, the IC50 was 10 nM. Besides, in data set [2], the “Log P” value is reported as 4.12.
`CN(C)C/C=C/C(=O)Nc1ccc2ncnc(Nc3cccc(I)c3)c2c1` [ML06]: at human BCRP ATPase, the “Activation of BCRP ATPase” value is “activated BCRP ATPase” and the “BCRP ATPase activation relative to that produced by gefitinib” value is reported as at most 40%. In the data set on EGFR, the IC50 is 0.05 to 5 nM. Also, the IC50 at 72 h in data set [1] was above 50000 nM. For the same compound, the IC50 with MDCK-CT cells stood at 2200 ± 700 nM.
Regarding `O=C(/C=C/CN(CCO)CCO)Nc1cc2c(Nc3cc(Cl)c(Cl)cc3F)ncnc2cc1OCCOCCOCCOCCF` [ML10], on human BCRP ATPase, the “Activation of BCRP ATPase” value was “no activating effect”.
With `O=C(CCl)Nc1cc2c(Nc3cc(Cl)c(Cl)cc3F)ncnc2cc1OCCOCCOCCOCCOCCOCCF` [PEG6-ML05], at human BCRP ATPase, the “Activation of BCRP ATPase” value is reported as “no activating effect”. Besides, the IC50 is 30 to 45 nM in the data set on EGFR and 2800 ± 3100 nM in the data set on MDCK-CT cells. For the same compound, the IC50 at 72 h in data set [1] was above 50000 nM. For the same compound, in data set [2], the “Log P” value is listed as 4.75.
For the compound `COCC(=O)Nc1ccc2ncnc(Nc3cccc(Br)c3)c2c1` [methoxy-Br-ML03, N-{4-[(3-Bromo-phenyl)amino]-quinazoline-6-yl}-2-methoxyacetamide], the “Activation of BCRP ATPase” value on human BCRP ATPase is listed as “activated BCRP ATPase”. In addition, the IC50 at 72 h in data set [1] is above 50000 nM. Besides, the IC50 in the data set with MDCK-CT cells was 1800 ± 1200 nM.
Turning to `COCC(=O)Nc1ccc2ncnc(Nc3cc(Cl)c(Cl)cc3F)c2c1` [methoxy-ML03], the “Activation of BCRP ATPase” value on human BCRP ATPase is reported as “activated BCRP ATPase”. In addition, the IC50 in the data set on EGFR was 252 nM.
